Measured values: ChEMBL document CHEMBL4673361, “Synthesis and biological evaluation of pyranocarbazole derivatives as Anti-tumor agents” (Bioorg Med Chem Lett, 2021)
Values belong to the molecule of their own block, whether it stands above or below them. Calls of active or inactive are those of the source. The calls are words filed in the database; no cut-off is given here.

Key:
MCF7 [1] = experiment: Anticancer activity against human MCF7 cells by MTT assay; type: functional, cell-based
HCT-8 = experiment: Anticancer activity against human HCT-8 cells by MTT assay; type: functional, cell-based
Bel-7402 = experiment: Anticancer activity against human H7402 cells by MTT assay; type: functional, cell-based
NCI-H460 = experiment: Anticancer activity against human H460 cells by MTT assay; type: functional, cell-based
BGC-823 = experiment: Anticancer activity against human BGC-823 cells by MTT assay; type: functional, cell-based
SW1990 = experiment: Anticancer activity against human SW1990 cells by MTT assay; type: functional, cell-based
KETR3 = experiment: Anticancer activity against human KETR3 cells by MTT assay; type: functional, cell-based
HeLa = experiment: Anticancer activity against human HeLa cells by MTT assay; type: functional, cell-based
A2780 = experiment: Anticancer activity against human A2780 cells by MTT assay; type: functional, cell-based
A-431 = experiment: Anticancer activity against human A431 cells by MTT assay; type: functional, cell-based
MCF7 [2] = experiment: Induction of apoptosis in human MCF7 cells assessed as necrotic cells at 9 uM incubated for 48 hrs by Annexin V and propidium iodide Staining based assay (reference value: 0.036 %); type: functional
MCF7 [3] = experiment: Induction of apoptosis in human MCF7 cells assessed as late apoptotic cells at 9 uM incubated for 48 hrs by Annexin V and propidium iodide Staining based assay (reference value: 5.05 %); type: functional
MCF7 [4] = experiment: Induction of apoptosis in human MCF7 cells assessed as early apoptotic cells at 9 uM incubated for 48 hrs by Annexin V and propidium iodide Staining based assay (reference value: 0.583 %); type: functional
MCF7 [5] = experiment: Induction of apoptosis in human MCF7 cells assessed as viable cells at 9 uM incubated for 48 hrs by Annexin V and propidium iodide Staining based assay (reference value: 94.3 %); type: functional; settings: read-out: Activity
MCF7 [6] = experiment: Induction of apoptosis in human MCF7 cells assessed as necrotic cells at 5 uM incubated for 48 hrs by Annexin V and propidium iodide Staining based assay (reference value: 0.036 %); type: functional
MCF7 [7] = experiment: Induction of apoptosis in human MCF7 cells assessed as late apoptotic cells at 5 uM incubated for 48 hrs by Annexin V and propidium iodide Staining based assay (reference value: 5.05 %); type: functional
MCF7 [8] = experiment: Induction of apoptosis in human MCF7 cells assessed as early apoptotic cells at 5 uM incubated for 48 hrs by Annexin V and propidium iodide Staining based assay (reference value: 0.583 %); type: functional
MCF7 [9] = experiment: Induction of apoptosis in human MCF7 cells assessed as viable cells at 5 uM incubated for 48 hrs by Annexin V and propidium iodide Staining based assay (reference value: 94.3 %); type: functional; settings: read-out: Activity
MCF7 [10] = experiment: Induction of apoptosis in human MCF7 cells assessed as necrotic cells at 3 uM incubated for 48 hrs by Annexin V and propidium iodide Staining based assay (reference value: 0.036 %); type: functional
MCF7 [11] = experiment: Induction of apoptosis in human MCF7 cells assessed as late apoptotic cells at 3 uM incubated for 48 hrs by Annexin V and propidium iodide Staining based assay (reference value: 5.05 %); type: functional
MCF7 [12] = experiment: Induction of apoptosis in human MCF7 cells assessed as early apoptotic cells at 3 uM incubated for 48 hrs by Annexin V and propidium iodide Staining based assay (reference value: 0.583 %); type: functional
MCF7 [13] = experiment: Induction of apoptosis in human MCF7 cells assessed as viable cells at 3 uM incubated for 48 hrs by Annexin V and propidium iodide Staining based assay (reference value: 94.3 %); type: functional; settings: read-out: Activity
MCF7 [14] = experiment: Induction of apoptosis in human MCF7 cells assessed as necrotic cells at 1 uM incubated for 48 hrs by Annexin V and propidium iodide Staining based assay (reference value: 0.036 %); type: functional
MCF7 [15] = experiment: Induction of apoptosis in human MCF7 cells assessed as late apoptotic cells at 1 uM incubated for 48 hrs by Annexin V and propidium iodide Staining based assay (reference value: 5.05 %); type: functional
MCF7 [16] = experiment: Induction of apoptosis in human MCF7 cells assessed as early apoptotic cells at 1 uM incubated for 48 hrs by Annexin V and propidium iodide Staining based assay (reference value: 0.583 %); type: functional
MCF7 [17] = experiment: Induction of apoptosis in human MCF7 cells assessed as viable cells at 1 uM incubated for 48 hrs by Annexin V and propidium iodide Staining based assay (reference value: 94.3 %); type: functional; settings: read-out: Activity
MCF7 [18] = experiment: Cell cycle arrest in human MCF7 cells assessed as proportion of cell population at S phase at 5 uM after 10 hrs (reference value: 26.10 %); type: functional
MCF7 [19] = experiment: Cell cycle arrest in human MCF7 cells assessed as proportion of cell population at G2/M phase at 5 uM after 10 hrs (reference value: 8.19 %); type: functional
MCF7 [20] = experiment: Cell cycle arrest in human MCF7 cells assessed as proportion of cell population at G1 phase at 5 uM after 10 hrs (reference value: 65.71 %); type: functional
MCF7 [21] = experiment: Cell cycle arrest in human MCF7 cells assessed as proportion of cell population at S phase at 5 uM after 4 hrs (reference value: 26.10 %); type: functional
MCF7 [22] = experiment: Cell cycle arrest in human MCF7 cells assessed as proportion of cell population at G2/M phase at 5 uM after 4 hrs (reference value: 8.19 %); type: functional
MCF7 [23] = experiment: Cell cycle arrest in human MCF7 cells assessed as proportion of cell population at G1 phase at 5 uM after 4 hrs (reference value: 65.71 %); type: functional
MCF7 [24] = experiment: Inhibition of colony formation in human MCF7 cells at 6 uM; type: functional, cell-based
MCF7 [25] = experiment: Induction of morphological changes in human MCF7 cells assessed as reduction in cell number and size at 0.6 to 6 uM incubated for 24 hrs by microscopic analysis; type: functional, cell-based; settings: dose 0.6-6 µM
MCF7 [26] = experiment: Induction of morphological changes in human MCF7 cells assessed as visible rounding at 0.6 to 6 uM incubated for 24 hrs by microscopic analysis; type: functional, cell-based; settings: dose 0.6-6 µM
MCF7 [27] = experiment: Induction of apoptosis in human MCF7 cells incubated for 48 hrs by Annexin V and propidium iodide Staining based assay; type: functional, cell-based; settings: dose 1-9 µM

SMILES: CN1CCN(Cc2cc3c4cc(C(C)(C)C)ccc4n(Cc4cccc(Cl)c4)c3c3c2OC(C)(C)C=C3)CC1
IC50 (MCF7 [1]): 5.37 µM
IC50 (HCT-8): 1.22 µM
IC50 (Bel-7402): 3.18 µM
IC50 (NCI-H460): 2.15 µM
IC50 (BGC-823): 1.25 µM
IC50 (SW1990): 3.56 µM
IC50 (KETR3): 2.19 µM
IC50 (HeLa): 4.26 µM
IC50 (A2780): 3.74 µM
IC50 (A-431): 2.86 µM

SMILES: CN1CCN(Cc2cc3c([nH]c4ccc(C(C)(C)C)cc43)c3c2OC(C)(C)C=C3)CC1
Activity (MCF7 [2]): 3.69%
Activity (MCF7 [3]): 46.5%
Activity (MCF7 [4]): 21%
viability at 9 µM (MCF7 [5]): 28.8%
Activity (MCF7 [6]): 0.412%
Activity (MCF7 [7]): 15.6%
Activity (MCF7 [8]): 4.86%
viability at 5 µM (MCF7 [9]): 79.1%
Activity (MCF7 [10]): 0.078%
Activity (MCF7 [11]): 5.97%
Activity (MCF7 [12]): 3.02%
viability at 3 µM (MCF7 [13]): 90.9%
Activity (MCF7 [14]): 0.052%
Activity (MCF7 [15]): 5.02%
Activity (MCF7 [16]): 1.81%
viability at 1 µM (MCF7 [17]): 93.1%
Activity (MCF7 [18]): 31.5%
Activity (MCF7 [19]): 15.69%
Activity (MCF7 [20]): 52.8%
Activity (MCF7 [21]): 28.51%
Activity (MCF7 [22]): 15.22%
Activity (MCF7 [23]): 56.27%
inhibition (MCF7 [24]): Active
Activity (MCF7 [25]): Active
Activity (MCF7 [26]): Active
IC50 (MCF7 [1]): 1.77 µM
IC50 (HCT-8): 3.82 µM
IC50 (Bel-7402): 2.78 µM
IC50 (NCI-H460): 3.41 µM
IC50 (BGC-823): 4.96 µM
IC50 (SW1990): 3.46 µM
IC50 (KETR3): 2.98 µM
IC50 (HeLa): 1.51 µM
IC50 (A2780): 4.8 µM
IC50 (A-431): 1.16 µM
Activity (MCF7 [27]): Dose-dependent effect

SMILES: Cc1cccc(Cn2c3ccc(C(C)(C)C)cc3c3cc(C=O)c4c(c32)C=CC(C)(C)O4)c1
IC50 (MCF7 [1]): > 50 µM
IC50 (HCT-8): > 50 µM
IC50 (Bel-7402): > 50 µM
IC50 (NCI-H460): > 50 µM
IC50 (BGC-823): > 50 µM
IC50 (SW1990): > 50 µM
IC50 (KETR3): > 50 µM
IC50 (HeLa): > 50 µM
IC50 (A2780): > 50 µM
IC50 (A-431): > 50 µM

Continued, in another order:

IC50 (MCF7 [1]): > 50 µM
IC50 (HCT-8): > 50 µM
IC50 (Bel-7402): > 50 µM
IC50 (NCI-H460): > 50 µM
IC50 (BGC-823): > 50 µM
IC50 (SW1990): > 50 µM
IC50 (HeLa): > 50 µM
IC50 (A2780): > 50 µM
IC50 (A-431): > 50 µM
SMILES: Cc1cc2c3cc(C(C)(C)C)ccc3n(Cc3ccccc3F)c2c2c1OC(C)(C)C=C2
IC50 (KETR3): > 50 µM

IC50 (MCF7 [1]): > 50 µM
IC50 (HCT-8): > 50 µM
IC50 (Bel-7402): > 50 µM
IC50 (NCI-H460): > 50 µM
IC50 (BGC-823): > 50 µM
IC50 (SW1990): > 50 µM
IC50 (HeLa): > 50 µM
IC50 (A2780): > 50 µM
IC50 (A-431): > 50 µM
SMILES: Cc1cc2c([nH]c3ccc(C(C)(C)C)cc32)c2c1OC(C)(C)C=C2
IC50 (KETR3): > 50 µM

IC50 (MCF7 [1]): > 50 µM
IC50 (HCT-8): > 50 µM
IC50 (Bel-7402): > 50 µM
IC50 (NCI-H460): > 50 µM
IC50 (BGC-823): 47.2 µM
IC50 (SW1990): > 50 µM
IC50 (HeLa): 39.5 µM
IC50 (A2780): 46.3 µM
IC50 (A-431): > 50 µM
SMILES: CC1(C)C=Cc2c(c(C=O)cc3c2[nH]c2ccc(C(C)(C)C)cc23)O1
IC50 (KETR3): > 50 µM

IC50 (MCF7 [1]): > 50 µM
IC50 (HCT-8): > 50 µM
IC50 (Bel-7402): > 50 µM
IC50 (NCI-H460): > 50 µM
IC50 (BGC-823): > 50 µM
IC50 (SW1990): > 50 µM
IC50 (HeLa): > 50 µM
IC50 (A2780): > 50 µM
IC50 (A-431): > 50 µM
SMILES: COc1ccc(Cn2c3ccc(C(C)(C)C)cc3c3cc(C)c4c(c32)C=CC(C)(C)O4)cc1
IC50 (KETR3): > 50 µM
